Test results from ChEMBL document CHEMBL2095176, “GSK Tuberculosis Screening Data”.
≈ marks a conversion by molar mass, not a printed value.

Legend:
[1] = buffer, pH 7.4
Description: (§1) GSK_TB: GSK in-house hydrophobicity assay at pH7.4 (logD)

[2] = octanol/water
Description: (§2) GSK_TB: GSK in-house hydrophobicity assay (logP)

[3] = tested on: Mycobacterium tuberculosis H37Rv; experiment: microbe, parasite or virus in culture
Description: GSK_TB: Intracellular minimum inhibitory concentration (MIC) H37Rv assay

physchem [4] = details: phosphate buffered saline, pH 7.4
physchem [5] = details: octanol/water
Description: as §2

physchem [6] = details: buffer, pH 7.4
Description: as §1

| SMILES | logD7.4 [1] | logP [2] | MIC90 [3] [µM] | solubility kinetic (physchem [4]) [µM] | logP (physchem [5]) | logD (physchem [6]) |
| --- | --- | --- | --- | --- | --- | --- |
| CC(C)(C)c1ccc(-c2nnc(SCC(=O)OC3CCCCC3)o2)cc1 | 9.17 | 9.65 | 1.74 (≈ 0.651 µg/mL) | 1 (≈ 0.375 µg/mL) | – | – |
| CCN(CC)c1ccc(-c2nn3c(-c4n[nH]c5c4CCC5)nnc3s2)cc1 | 5.44 | – | 1.5 (≈ 0.569 µg/mL) | 1 (≈ 0.379 µg/mL) | 5.78 | – |
| COc1ccc(-c2ccc(Nc3cccc(S(=O)(=O)CCNCCc4cccs4)c3)nc2)cn1 | – | – | 7.59 (≈ 3.75 µg/mL) | 1 (≈ 0.495 µg/mL) | 5.83 | 5.63 |
| O=C(c1cc2c(s1)CCC2)N1CCN(Cc2ccc3c(c2)OCO3)CC1 | – | – | 5.3 (≈ 1.96 µg/mL) | 117 (≈ 43.3 µg/mL) | 6.34 | 6.09 |
| O=C(C=Cc1cccs1)N1CCN(Cc2ccc(Br)s2)CC1 | – | – | 1.9 (≈ 0.755 µg/mL) | 152 (≈ 60.4 µg/mL) | 6.74 | 6.47 |
| CCCCS(=O)(=O)Nc1ccc2cnn(C)c2c1 | – | – | 1.3 (≈ 0.348 µg/mL) | 552 (≈ 148 µg/mL) | 3.58 | 3.48 |
| COc1ccc2cc(C(=O)Nc3ccc(C4CCN(C)CC4)cc3)sc2c1 | – | – | 9.55 (≈ 3.63 µg/mL) | 62 (≈ 23.6 µg/mL) | 5.93 | 3.11 |
| Br.Cc1ccccc1OCCCON1C(=N)N=C(N)NC1(C)C | – | – | 3.76 | 436 | 3.92 | 2.83 |
| O=C(COc1ccccc1)N1CCN(c2cnc3ccccc3n2)CC1 | – | – | 3.09 (≈ 1.08 µg/mL) | 173 (≈ 60.3 µg/mL) | 4.72 | 4.69 |
| CN1CCN(c2cc(-c3ccc(F)cc3)nc(-c3ccncc3)n2)CC1 | – | – | 7.41 (≈ 2.59 µg/mL) | 44 (≈ 15.4 µg/mL) | 5.73 | 5.07 |
| Cn1c(=O)c2c([S+](C)[O-])snc2n(C)c1=O (stereo not given) | – | – | 9.77 (≈ 2.53 µg/mL) | 420 (≈ 109 µg/mL) | 1.24 | 1.24 |
| CC1=Nc2ccccc2CN1CC(O)c1cc(Br)cs1 (stereo not given) | – | – | 7.85 (≈ 2.76 µg/mL) | 563 (≈ 198 µg/mL) | 4.12 | 2.46 |
| CCC(Sc1nc2ccccc2o1)C(=O)Nc1nccs1 (stereo not given) | – | – | 2.79 (≈ 0.89 µg/mL) | 105 (≈ 33.5 µg/mL) | 5.78 | 5.44 |
| CC(C)OC(=O)COc1ccc(-c2cnc(N(C)CCc3ccncc3)nc2)cc1 | – | – | 6.76 (≈ 2.75 µg/mL) | 182 (≈ 74 µg/mL) | 5.93 | 5.63 |
| COc1cc2ccccc2cc1C(=O)NCc1cccc(-c2ccccc2OC)c1 | – | – | 2.2 (≈ 0.874 µg/mL) | 84 (≈ 33.4 µg/mL) | 7.58 | 7.21 |
| CCn1c(=O)c(=O)[nH]c2cc(C(=O)Nc3ccccc3Nc3ccc(OC)cc3)ccc21 | – | – | 8.4 (≈ 3.62 µg/mL) | 47 (≈ 20.2 µg/mL) | 3.87 | 3.67 |
| Cc1ccc2nc(C)c(C(=O)NCC(C)C)n2c1 | – | – | 7.67 (≈ 1.88 µg/mL) | 287 (≈ 70.4 µg/mL) | 3.41 | 3.39 |
| O=C(NNC(=O)c1ccc([N+](=O)[O-])o1)c1ccc2ccccc2c1 | – | – | 8.32 (≈ 2.71 µg/mL) | 1 (≈ 0.325 µg/mL) | 3.48 | 3.02 |
| Cc1cnc(N2CCN[C@@H](Cc3ccccc3)C2)nc1Oc1ccc(-n2ccnc2)cc1.O=C(O)C(F)(F)F | – | – | 9.23 | 228 | 5.03 | 4.04 |
| Cc1ccc(CNC(=O)c2cnn3c2NC(c2ccc(C)cc2)CC3C(F)F)cc1 (stereo not given) | – | – | 1.23 (≈ 0.505 µg/mL) | 1 (≈ 0.41 µg/mL) | 7.09 | 6.84 |
